Experimental data reported in patent US5346814A, “Method of detecting cell response to cell-damaging energy” (Board of Trustees of the Leland Stanford Jr. University, priority 1992, dated 1994).
“Also recorded” adds a separate entry of the source.

Columns and labels:
RIF-1 cells = test: Clonogenic survival assay after heating at 45° C., RIF-1 cells; assay type: cell-based, murine
Method: RIF-1 cells were grown at 37° C. in RPMI-1640 medium supplemented with 10% FBS and 2% (v/v) DMSO (dimethylsulfoxide). After seven days of growth, the medium was replaced with DMSO-free medium, and the heat sensitivity of the cells in the presence and absence of 20 mM TEA was determined by clonogenic assay as in Example 4. The results are shown in FIGS. 7A and 7B, with survival data for non-DMSO-treated RIF-1 cells shown for comparison.

[1] = test system: voltage-dependent potassium currents in RIF-1 cells; test: Whole-cell voltage-clamp recording of heat-inducible potassium currents in DMSO-treated RIF-1 cells; assay type: cell-based, murine; conditions: RIF-1 cells grown in 2% DMSO
Method: (§1) Voltage-Clamp Recordings.
The potassium currents of RIF-1 cells grown in the presence of 2% DMSO as above (Example 7) were determined in the presence and absence of 20 mM TEA following heating of the cells at 45° C. for 10 minutes, as in Example 2.

[2] = test system: K+ channel proteins recognized by antibody ShA-3; test: Western blot of K+ channel proteins in RIF-1 cells (ShA-3 antibody); assay type: cell-based, murine; conditions: RIF-1 cells grown in 2% DMSO for 3, 5, 7 days
Method: Western Blot Analysis In general, following separation of cellular proteins by sodium dodecyl sulfate (SDS)-polyacrylamide gel electrophoresis, separated proteins were electroblotted onto a nitrocellulose membrane using a 25 mM Tris-HCl/192 mM glycine/20% (v/v) methanol transfer buffer (pH 8.3) in a Trans-Blot apparatus (Bio-Rad, Richmond, Calif.) at 15 V and 100 mA for 12 to 14 h. The blot was blocked in 5% nonfat dry milk in TBS (50 mM Tris containing 0.2 M NaCl, pH 7.4) at room temperature for 1h; this step and all following steps were done with continuous agitation. The primary antibody was diluted 1:200 in 3% nonfat dry milk in TBS, and the blot was incubated for 16 to 24 h at 4° C. The blot was washed with TBS three times for 10 min per wash, and incubated for 2 h at room temperature with a 1:500 dilution of alkaline phosphatase-conjugated antispecies antibody. After washing with TBS as above, the blot was developed by incubation for 20 min in a solution containing 3-hydroxy-2-naphthoic acid 2,4-dimethylanilide phosphate (1 μg/ml ) and fast red (2 μg/ml) in TBS buffer. The developed blot was washed in distilled, deionized water to stop the color reaction.
RIF-1 and TR-4 cells were grown in exponential phase at 37° C. in RPMI-1640 medium supplemented with 10% FBS. […]

HSP70 = test: Western blot of HSP70 polypeptide levels in RIF-1 cells (N-27 antibody); assay type: cell-based, murine
Method: Western Blot Analysis In general, following separation of cellular proteins by sodium dodecyl sulfate (SDS)-polyacrylamide gel electrophoresis, separated proteins were electroblotted onto a nitrocellulose membrane using a 25 mM Tris-HCl/192 mM glycine/20% (v/v) methanol transfer buffer (pH 8.3) in a Trans-Blot apparatus (Bio-Rad, Richmond, Calif.) at 15 V and 100 mA for 12 to 14 h. The blot was blocked in 5% nonfat dry milk in TBS (50 mM Tris containing 0.2 M NaCl, pH 7.4) at room temperature for 1h; this step and all following steps were done with continuous agitation. The primary antibody was diluted 1:200 in 3% nonfat dry milk in TBS, and the blot was incubated for 16 to 24 h at 4° C. […]
RIF-1 cells were grown for 7 days in the presence of 2% DMSO as in Example 9. After the seventh day, cells were heated at 45° C. for 10 min, and were analyzed either immediately by SDS gel/Western blot analysis, or after an additional 18 hour growth period at 37° C. to allow synthesis of heat-inducible HSP70 polypeptides. […]
In a parallel set of experiments, heating of the mock- and gene-transfectedcells was performed in the presence or absence of 20 mM TEA, and the expression of HSP70 proteins was determined by immunoblot analysis, using the HSP70-specific N-27 antibody as in Example 10.

[3] = test system: voltage-dependent potassium currents in A549 cells; test: Whole-cell voltage-clamp recording of K+ currents in non-irradiated A549 cells after chemical treatment; assay type: cell-based, human
Method: Voltage-Clamp Recordings. Whole-cell recording was performed by voltage clamp analysis as described by Hamill et al. (1981). In general, prior to whole cell recording, the cell medium was replaced with serum-free medium to ensure a better giga-ohm seal. […] Glass electrodes having a tip resistance of 3-7 Mohms were sylgarded (with Sylgard, Dow Chemical) and backfilled with a solution containing 140 mM KCl, 2 mM MgCl2, 11 mM EGTA, 1 mM CaCl2, and 10 mM Hepes, pH 7.2. […] A test pulse of 20 mV was applied, and the cell was then aspirated against the tip of the microelectrode. The membrane seal resistance was determined from the reduction in voltage of the test pulse.
Membrane currents were filtered at 2 kHz using a 4-pole low pass Bessel filter before sampling with a 12-bit digital-analog converter controlled by a Labmaster board (Scientific Solutions) in an IBM AT computer. Leakage currents were subtracted from the total currents measured at each voltage either by using a p,p/4 algorithm (Armstrong and Bezanilla, 1974) built into the software (INDEC Systems, Santa Cruz, Calif.), or after determining the linear component from the current-voltage (I-V) relation near the holding potential of -75 mV. The limit of sensitivity of the current measurements in these experiments was about 50-60 pA.

[4] = test system: voltage-dependent potassium currents in A549 cells; test: Whole-cell voltage-clamp recording of radiation-induced K+ currents in A549 cells; assay type: cell-based, human
Method: as §1
In a second study, to determine whether the induced currents -were affected by the presence of TEA, A549 cells were exposed to 150 cGy of 137Cs γ-irradiation, and the radiation-induced currents were measured under three different conditions: (a) directly after irradiation, (b) after replacement of the bath solution with medium containing 20 mM TEA and (c) after the TEA solution of step (b) had been replaced with TEA-free medium.
A549 cells grown as described in the Materials and Methods section were preincubated for 1 h in medium containing 20 mM N-acetylcysteine (NAC) (Schreck et al., 1991). The cells, still in the presence of NAC, were then irradiated (150 cGy), and the induced currents were recorded. The results are shown in FIG. 19 (open circles, irradiation without NAC preincubation; open triangles, preincubation with 20 mM NAC; solid circles, non-irradiated control cells).

[5] = test system: voltage-dependent potassium channel currents in TR-4 cells; conditions: 20 mM TEA in cell medium during current measurement; TR-4 cells heated 45° C. 10 min
Method: Voltage-Clamp Recordings. Whole-cell recording was performed by voltage clamp analysis as described by Hamill et al. (1981). In general, prior to whole cell recording, the cell medium was replaced with serum-free medium to ensure a better giga-ohm seal. Glass electrodes were prepared using a vertical pipette puller (model P30 from Sutter Instruments, Calif.). The tip diameter to be achieve depended upon the size of the cell-type being examined, but was generally between about 0.5 and 1 μm. Glass electrodes having a tip resistance of 3-7 Mohms were sylgarded (with Sylgard, Dow Chemical) and backfilled with a solution containing 140 mM KCl, 2 mM MgCl2, 11 mM EGTA, 1 mM CaCl2, and 10 mM Hepes, pH 7.2. […] The membrane seal resistance was determined from the reduction in voltage of the test pulse.
Membrane currents were filtered at 2 kHz using a 4-pole low pass Bessel filter before sampling with a 12-bit digital-analog converter controlled by a Labmaster board (Scientific Solutions) in an IBM AT computer. Leakage currents were subtracted from the total currents measured at each voltage either by using a p,p/4 algorithm (Armstrong and Bezanilla, 1974) built into the software (INDEC Systems, Santa Cruz, Calif.), or after determining the linear component from the current-voltage (I-V) relation near the holding potential of -75 mV. […]

heat shock factor (HSF) = test system: heat shock factor (HSF)
Method: To determine whether the presence of TEA during heating prevented the activation of heat shock factor (HSF), RIF-1 and TR-4 cells grown as in Example 1 were heated at 45° C. for 15-40 minutes in the presence or absence of 20 mM TEA in the medium. After being washed with fresh medium (no TEA), the cells were harvested, and gel retardation assays were performed as described by Zimarino et al. (1987), except that the electrophoresis was performed on a 4.5% native polyacrylamide gel in 0.5X TBE buffer (45 mM Tris-borate, 1 mM EDTA) at 140 V at room temperature for 2.5 h. The gel was fixed by soaking in 7% acetic acid for 5 min, rinsed briefly in distilled water, and dried on Whatman 3 MM chromatography paper. The gel was then autoradiographed by exposing Kodak XAR-2 film to the gels at -70° C. with intensifying screens (Cronex Lighting Plus, Dupont).

TR-4 cells = conditions: 20 mM TEA during 45° C. 40 min heating step and/or 12 h 37° C. incubation
Method: The development of thermotolerance in TR-4 cells in the presence or absence of 20 mM TEA was assessed by heating the cells at 45° C. for 40 min, followed by a 12 h incubation at 37° C. (Hahn and van Kersen, 1988), and assessment of cell survival following heating and clonogenic assay as described in Example 4. Five groups of TR-4 cells (a to e) were examined, differing only as to which steps of the procedure included TEA in the cell medium.

A549 cells = conditions: 20 mM TEA in cell medium during irradiation, doses greater than about 200 cGy
Method: γ-irradiation. Cells were irradiated at room temperature using a ^137 [Cs] source at a dose rate of 150 cGy/min. The ^137 [Cs] source consisted of a Mark I irradiator (model 30, 2000 Ci ^137 [Cs]) from J. L. Shepherd and Associates (Glendale, Calif.). Unless noted otherwise, the cells were incubated at 37° C. after irradiation for further characterization.
In another experiment, cell survival of A549 cells was measured as a function of ^137 Cs irradiation dosages (0-1000 cGy) in the presence or absence of 20 mM TEA in the cell medium during irradiation.

For C[S+](C)[O-] [DMSO, dimethylsulfoxide], the “heat resistance of cells cultured in DMSO” value (RIF-1 cells; RIF-1 cells cultured in 2% (v:v) DMSO for seven days, then heated at 45° C.) was “significantly more heat resistant”, the “voltage-dependent potassium currents in DMSO-cultured cells after heating” value ([1]; heated 45° C. 10 min) was “exhibited voltage-dependent potassium currents” and the “expression of K+ channel proteins recognized by ShA-3 antibody” value [2] was “expressed at higher levels than in cells grown without DMSO; also recorded: increased with increasing duration of exposure”. For the same molecule, the “effect on level of cellular HSP70” value (HSP70; RIF-1 cells grown 7 days in 2% DMSO, heated 45° C. 10 min, analyzed directly or after 18 hour growth) was “no effect on the level of cellular HSP70”.
In the case of OO [Hydrogen peroxide, hydrogen peroxide], the “induction of voltage-dependent potassium current” value ([3]; 3.0 μM final concentration in cell medium, measured within 30 seconds) is reported as “sizeable voltage-dependent current”.
For CC(=O)N[C@@H](CS)C(=O)O [N-acetylcysteine], the “effect on induction of potassium currents by irradiation” value ([4]; 20 mM, 1 h preincubation and present during 150 cGy irradiation) was “effective to substantially reduce current induction”.
CC[N+](CC)(CC)CC.[Cl-] [TEA, Tetraethylammonium chloride] was tested, and the “effect on heat-induced voltage-dependent potassium currents” value [5] was “abolished nearly all detectable current”, the “effect on survival rate after heating” value (RIF-1 cells; 20 mM TEA during heating at 45° C. for 0-100 min, RIF-1 cells) was “no effect on the survival rate of the RIF-1 cells; also recorded: no effect on the survival rate of RIF-1 cells” and the “effect on heat resistance of DMSO-cultured cells” value (RIF-1 cells; 20 mM TEA in medium during heating, RIF-1 cells cultured 7 days in 2% DMSO) was “diminished heat resistance”. For the same molecule, the “effect on heat-induced currents in DMSO-cultured cells” value ([1]; 20 mM TEA in cell solution during current measurements) was “virtually abolished the currents”, the “inhibitory effect on expression of HSP70 (constitutive and inducible forms)” value (HSP70; 20 mM TEA during heating 10 min 45° C., ShakerB-transfected vs mock-transfected RIF-1 cells) was “greater in the cells transfected with the ShakerB gene than in mock transfected cells; also recorded: greater in the cells transfected with the ShakerB gene than in the mock-transfected cells” and the “effect on radiation-induced potassium currents” value ([4]; 20 mM TEA after 150 cGy 137Cs irradiation) was “reversible inhibition; also recorded: could be inhibited by TEA”. For the same molecule, the “effect on heat-induced activation of HSF” value (heat shock factor (HSF)) was “eliminated most or all of the heat-induced activation of HSF”, the “effect on levels of activated HSF” value (heat shock factor (HSF)) was “no effect on the levels of activated HSF” and the “effect on development of thermotolerance” value (TR-4 cells) was “little effect on the development of thermotolerance”. For the same molecule, the “effect on cytotoxicity of 137Cs irradiation” value (A549 cells) was “cytotoxicity was increased somewhat”.
For Cc1cn([C@H]2C[C@H](O)[C@@H](CO)O2)c(=O)[nH]c1=O [[^3 H]thymidine], the “induction of potassium currents” value ([3]; 2 μCi/ml for 16-18 hours prior to whole-cell recording) was “No potassium currents were observed”.
